Data published in patent US10335454B2, “Combination and use” (HELPERBY THERAPEUTICS LIMITED, priority 2014, dated 2019).

Key:
[1] = test system: log phase NDM-1 E. coli (BAA2469 strain); experiment: Time-kill of suloctidil and colistin, alone and in combination, against log phase NDM-1 E. coli; assay type: cell-based; conditions: FIGS. 28 to 34
Description: Materials and Methods • Bacterial strain used: BAA2469 strain of NDM-1 E. coli • Growth of bacteria: Log phase growth of bacteria was carried out according to methods known in the art.
(§1) (i) Suloctidil was obtained from a commercial source and dissolved in DMSO to make a stock concentration of 10 mg/ml.
(§2) (ii) Colistin was obtained from a commercial source at a concentration of 20 mg/ml.
Both suloctidil and colistin were then added to 96 well plates either alone or in the combinations shown below in Table 2.
(§3) The overnight culture was diluted with nutrient broth (Oxoid) to 10^7 CFU/ml and 280 μl and 290 μl of the culture was added to each combination well and single agent well, respectively, to make a final […] of 300 μl. Incubation of the compounds with the bacterial suspension was carried out for 24 hours. At 0, 2, 4, 7 and 25 hours, CFU counts were performed to measure the kill effects of the drug combination.

[2] = test system: log phase NDM-1 Klebsiella pneumoniae (NCTC 13443 strain); experiment: Time-kill of suloctidil and colistin, alone and in combination, against log phase NDM-1 Klebsiella pneumoniae; assay type: cell-based; conditions: for kill effect (CFU counts): colistin alone 16 μg/ml, FIG. 19
Description: The synergistic effect of suloctidil in combination with colistin was tested against log phase NDM-1 Klebsiella pneumoniae using time-kill methods over a period of 24 hours.
Bacterial strain used: NCTC 13443 strain of NDM-1 Klebsiella pneumoniae
Growth of bacteria: Log phase growth of the bacteria was carried out according to methods known in the art.
as §1, §2
Both suloctidil and colistin were then added to 96 well plates either alone or in the combinations shown below in Table 1.
as §3

| Molecule | antimicrobial effect when used alone ([1]; colistin alone at 8, 4, 2 and 1 μg/ml) | kill effect (CFU counts) ([2]; after 7 hours) | kill effect (CFU counts) ([2]; after 25 hours) | antimicrobial effect when used alone ([2]; colistin alone at 8 and 4 μg/ml, time-kill, FIGS. 20, 21, 24, 25 and 27) | duration of the antimicrobial effect ([2]; colistin alone at 32 and 16 μg/ml, time-kill) | antimicrobial effect when used alone ([2]; colistin alone at 32 and 16 μg/ml, time-kill, FIGS. 18, 19, 22, 23 and 26) | antimicrobial effect when used alone ([1]; suloctidil alone at 16, 8 and 4 μg/ml) | antimicrobial effect when used alone ([2]; suloctidil alone at 32, 16, 8 and 4 μg/ml, time-kill, FIGS. 18 to 27) |
| --- | --- | --- | --- | --- | --- | --- | --- | --- |
| colistin | no antimicrobial effect | complete kill | bacteria re-growth | no antimicrobial effect | not long term | antimicrobial effect | – | – |
| CCCCCCCCNC(C)C(O)c1ccc(SC(C)C)cc1 (centres unmarked) [suloctidil] | – | – | – | – | – | – | no antimicrobial effect | no antimicrobial effect |
